# Experimental data reported in patent US11510928B2, “Use of mirtazapine in the treatment of inflammatory disorders, autoimmune disease and PBC” (UTI Limited Partnership, priority 2017, dated 2022).
# Columns and labels:
# [1] = Liver injury after mirtazapine alone (serum ALT, histology); format: in vivo, mouse; conditions: data not shown
# Procedure: Male 8-10 week old C57BL/6 mice (Jackson Labs, Bar Harbor, Me.) were used. All procedures were approved by the University of Calgary Animal Care Committee (protocol numbers AC14-0129 and AC14-0128) and were performed in accordance with the guidelines of the Canadian Council on Animal Care. To delineate the impact of mirtazapine treatment upon liver immune cell numbers and phenotype, and upon cytokine/chemokine networks within the liver, mice were treated with mirtazapine 1-20 mg/kg intraperitoneally^13-15. Mirtazapine was suspended in 1% aqueous solution of Tween 80, whereas the control group received 1% aqueous solution of Tween 80. Blood and liver samples were collected 5 hours post-mirtazapine treatment (or 16 hours post-Con A treatment). The detailed experimental protocols, lists of antibodies and reagents used, flow cytometry gating, and immune cell phenotyping strategies, are described herein.
# To assess liver injury, plasma alanine aminotransferase (ALT) activity was measured (Roche-Hitachi Modular-P800 apparatus; Roche, Mannheim, Germany). Additionally, formalin-fixed liver tissue slices were stained with Hematoxylin and Eosin (H&E) for microscopic examination. Extent of liver parenchymal necrosis was quantitated as previously described, using an Olympus XC10 camera (acquired using the Olympus VS-ASW software package; original magnification ×400). […]
# [2] = system: patients in the UK THIN database; assay: Retrospective THIN cohort study: incidence of autoimmune diseases with mirtazapine exposure (Example 7); format: in vivo, human; conditions: exposed vs matched (2:1) non-exposed cohort
# Source text: Patients who were prescribed mirtazapine. 90 day ([…]) identified and compared to a matched patient cohort (2:1) not exposed to mirtazapine (n=372,822). Out models were adjusted for depression, use of other antidepressants, comorbidity status, smoking and alcohol consumption.
# circulating TNFα = conditions: patients with major depressive disorder; cited from earlier work
# Con A-induced hepatitis = assay: Concanavalin A (Con A) hepatitis model of immune-mediated liver injury; format: in vivo, mouse; conditions: for Con A-induced liver damage (plasma ALT levels): 1, 10, 20 mg/kg ip 1 hour before Con A
# Procedure: To determine whether mirtazapine treatment alters subsequent immune-mediated liver injury, we used the mouse model of concanavalin (Con A) hepatitis. The Con A model is a widely used and well characterized model of immune-mediated T cell-driven liver injury^16, 17. Mice were treated with mirtazapine 20 mg/kg ip and 1 hour later Con A (Sigma, St. Louis, Mo.) or PBS vehicle was injected intravenously at a dose of 13.5 mg/kg^17. Mice were sacrificed 16 hours following Con A administration and hepatitis determined biochemically (ALT) and histologically (H & E staining)^17, 18. In addition, to further characterize the effects of mirtazapine in the Con A model, we performed a mirtazapine dose response study with mirtazapine doses of 1, 10, and 20 mg/kg ip given 1 hour prior to Con A treatment.
# To assess liver injury, plasma alanine aminotransferase (ALT) activity was measured (Roche-Hitachi Modular-P800 apparatus; Roche, Mannheim, Germany). Additionally, formalin-fixed liver tissue slices were stained with Hematoxylin and Eosin (H&E) for microscopic examination. Extent of liver parenchymal necrosis was quantitated as previously described, using an Olympus XC10 camera (acquired using the Olympus VS-ASW software package; original magnification ×400). Images were later processed and selected images obtained at 25 or 50% magnification (corresponding to magnifications of 100x and 200X, respectively).
# Hepatic CXCL10/IP-10, CXCL9/MIG, ICAM-1 and VCAM-1 expression were determined using immunohistochemistry, as previously described. Briefly, following initial deparaffinization and rehydration of tissue sections, antigen retrieval was performed in lx Citrate buffer, PH 6.0 (Abcam) for IP-10/CXCL9 and MIG/CXCL9, or in 1X EDTA buffer pH 8.0 for ICAM1 and VCAM-1. In all cases slides were incubated in antigen retrieval buffer at 95-100° C. for 20 minutes. Endogenous peroxidase and endogenous biotin were blocked using 3% H2O2 and an avidin/biotin blocking kit (Vector Laboratories, Burlingame, Calif.) respectively, and then incubated with primary antibodies (Rabbit IgG polyclonal against MIG at 1:200; polyclonal goat IgG against IP-10/CXCL10 at 1:40; rat monoclonal against ICAM-1 clone YN1/1.7.4 at 1:200; and rabbit monoclonal against VCAM1 clone EPR5047 at 1:1000) overnight at 4° C. This was followed by incubation with biotinylated rabbit anti-goat, goat-anti rat or goat anti-rabbit secondary antibodies (at 1:150) for 1 hour at room temperature (Vector Labs). Negative staining controls were performed by omission of primary antibody, or by omission of both primary and secondary antibodies. […] This was followed by incubation with Vectastain Elite ABC kit (Vector Laboratories) for 30 min at room temperature. Color was developed with Nova Red Chromogen (ImmPACT NovaRED Peroxidase Substrate, Vector Lab, Burlingame, Calif.), after which sections were counterstained with hematoxylin (EMD Millipore). Mounted slides were converted to virtual slides with a BX61 VS virtual microscopy system equipped with an XC10 camera and VS ASW software (Olympus) (original magnification ×400). For ICAM-1, VCAM1, CXCL9/Mig, and CXCL10/IP10 expression, all scanned virtual slides of the sections were examined in a blinded fashion, and expression patterns evaluated and described.
# To delineate the effect of mirtazapine treatment on hepatic cytokine/chemokine expression a Luminex® assay was used using methods as previously described. Livers were collected 5 hours after mirtazapine or vehicle treatment. A panel of mouse cytokines/chemokines were simultaneously measured in liver homogenate samples using a mouse MILLIPLEX kit (Millipore, USA) according to the manufacturer's protocol. The multiplexing analysis was performed using the Luminex 100 system (Luminex®, USA; Eve Technologies Corporation, Calgary, Canada). Total protein concentrations in liver homogenates were quantified using a BCA Protein Assay kit (Pierce, USA) according to manufacturers instructions. […]
smiles,measurement,setting,value
CN1CCN2c3ncccc3Cc3ccccc3C2C1 (stereo not drawn) [Mirtazapine],Liver injury as reflected by serum ALT levels or histology,[1],did not induce liver injury
same,"Adjusted Incidence Rate Ratio (adjusted IRR), Multiple Sclerosis",[2],0.80
same,"Adjusted Incidence Rate Ratio (adjusted IRR), Psoriasis",[2],0.93
same,"Adjusted Incidence Rate Ratio (adjusted IRR), Rheumatoid Arthritis",[2],0.55
same,Circulating TNFα levels,circulating TNFα,increased circulating TNFα levels
same,"Histological liver damage (liver cell necrosis, H&E)","Con A-induced hepatitis; 20 mg/kg, 16 hrs post-Con A",only a minimal hepatocyte damage
same,Con A-induced liver damage (plasma ALT levels),Con A-induced hepatitis; 16 hrs post-Con A,markedly attenuated
same,Con A-induced liver damage (plasma ALT levels),"Con A-induced hepatitis; 16 hrs post-Con A, listed as mirtazapine",striking reduction in liver damage
same,Hepatic CXCL10 levels,"Con A-induced hepatitis; Con A treated mice, 20 mg/kg",significantly augmented
same,Hepatic IL-10 levels,"Con A-induced hepatitis; Con A treated mice, 20 mg/kg",significantly higher
same,Hepatic TNFα and IFNγ levels,"Con A-induced hepatitis; Con A treated mice, 20 mg/kg",significantly reduced
same,"Hepatic levels of IL-6, IL-9 and LIF","Con A-induced hepatitis; Con A treated mice, 20 mg/kg",significantly reduced
same,"Hepatic levels of the chemokines CXCL9, CXCL2, CXCL1, CCL11 and CCL2","Con A-induced hepatitis; Con A treated mice, 20 mg/kg",reduced
same,Con A-induced increases in ICAM-1 expression in hepatic central veins and sinusoidal endothelium,"Con A-induced hepatitis; IHC, 20 mg/kg",almost completely prevented
same,Con A-induced increases in hepatic VCAM-1 expression,"Con A-induced hepatitis; IHC, 20 mg/kg",minimal effect
